pIC50: −log10 of the molar value.
What was measured:
MDR1 (P-gp, ABCB1) [1] = target: T1, MDR1 (P-gp, ABCB1) (Homo sapiens, UniProt P08183); experiment: Inhibition of human recombinant MDR1 in cell membrane fraction preincubated for 5 mins at 1 uM measured after 40 mins by Pgp-Glo luciferase assay; format: cell-based
[2] = target: ATP-dependent translocase ABCB1 (Homo sapiens, UniProt P08183); experiment: Inhibition of human recombinant MDR1 in cell membrane fraction preincubated for 5 mins measured after 40 mins by Pgp-Glo luciferase assay; format: cell-based
Chain of ATP-dependent translocase ABCB1 (P08183 whole entry): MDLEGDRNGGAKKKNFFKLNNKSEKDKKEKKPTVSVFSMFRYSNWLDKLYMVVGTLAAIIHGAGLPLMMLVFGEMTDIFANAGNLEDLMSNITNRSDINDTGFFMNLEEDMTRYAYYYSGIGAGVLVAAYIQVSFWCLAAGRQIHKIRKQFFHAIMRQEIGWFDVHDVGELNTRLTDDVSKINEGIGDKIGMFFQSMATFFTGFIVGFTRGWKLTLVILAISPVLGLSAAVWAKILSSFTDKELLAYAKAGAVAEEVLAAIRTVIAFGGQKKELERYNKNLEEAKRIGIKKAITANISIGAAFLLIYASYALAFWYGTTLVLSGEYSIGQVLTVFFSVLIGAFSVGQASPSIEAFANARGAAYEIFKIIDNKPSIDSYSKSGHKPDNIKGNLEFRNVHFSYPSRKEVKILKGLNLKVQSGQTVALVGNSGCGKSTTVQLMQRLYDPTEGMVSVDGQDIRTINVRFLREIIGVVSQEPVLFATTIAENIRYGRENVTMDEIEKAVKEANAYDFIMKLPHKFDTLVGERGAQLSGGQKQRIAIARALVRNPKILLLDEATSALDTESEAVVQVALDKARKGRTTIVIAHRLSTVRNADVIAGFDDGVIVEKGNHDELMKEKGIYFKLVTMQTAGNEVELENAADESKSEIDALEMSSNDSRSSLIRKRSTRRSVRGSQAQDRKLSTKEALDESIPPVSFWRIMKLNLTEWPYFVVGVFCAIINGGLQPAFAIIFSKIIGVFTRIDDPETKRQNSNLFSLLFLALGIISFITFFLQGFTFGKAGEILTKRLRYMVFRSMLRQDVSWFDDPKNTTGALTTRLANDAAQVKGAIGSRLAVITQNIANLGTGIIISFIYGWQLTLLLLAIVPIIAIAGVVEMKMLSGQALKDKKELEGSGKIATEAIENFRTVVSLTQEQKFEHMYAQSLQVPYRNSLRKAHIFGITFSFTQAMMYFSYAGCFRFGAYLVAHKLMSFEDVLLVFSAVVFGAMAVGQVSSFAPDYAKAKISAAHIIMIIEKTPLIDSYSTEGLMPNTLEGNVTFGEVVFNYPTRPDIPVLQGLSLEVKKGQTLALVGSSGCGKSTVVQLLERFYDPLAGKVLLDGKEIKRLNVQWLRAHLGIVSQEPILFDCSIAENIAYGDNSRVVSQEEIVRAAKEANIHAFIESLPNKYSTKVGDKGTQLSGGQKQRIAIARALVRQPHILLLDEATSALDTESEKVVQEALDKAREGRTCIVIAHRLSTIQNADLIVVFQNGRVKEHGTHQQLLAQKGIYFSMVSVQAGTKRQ

MDR1 (P-gp, ABCB1) [3] = target: T1, MDR1 (P-gp, ABCB1); experiment: Inhibition of human recombinant MDR1 in cell membrane fraction preincubated for 5 mins at 10 uM measured after 40 mins by Pgp-Glo luciferase assay; format: cell-based
Plasma = experiment: Total steady state plasma concentration in Sprague-Dawley rat at 5 mg/kg, po; format: ADME, organism-based; design: dose 5 mg/kg, route oral; conditions: in vivo
MDR1 (P-gp, ABCB1) [4] = target: T1, MDR1 (P-gp, ABCB1); experiment: Inhibition of human recombinant MDR1 in cell membrane fraction preincubated for 5 mins at 0.01 uM measured after 40 mins by Pgp-Glo luciferase assay; format: cell-based
MDR1 (P-gp, ABCB1) [5] = target: T1, MDR1 (P-gp, ABCB1); experiment: Inhibition of human recombinant MDR1 in cell membrane fraction preincubated for 5 mins at 0.1 uM measured after 40 mins by Pgp-Glo luciferase assay; format: cell-based
[6] = Oral bioavailability in human; conditions: in vivo
[7] = Absolute bioavailability in dog; format: ADME, organism-based, Canis lupus familiaris; conditions: in vivo
MDR1 (P-gp, ABCB1) [8] = target: T1, MDR1 (P-gp, ABCB1); experiment: Inhibition of human recombinant MDR1 in cell membrane fraction preincubated for 5 mins at 100 uM measured after 40 mins by Pgp-Glo luciferase assay; format: cell-based
[9] = Fraction unbound in Sprague-Dawley rat at 5 mg/kg, po; conditions: in vivo
CYP3A4 [10] = target: T2, CYP3A4 (Homo sapiens, UniProt P08684); experiment: Inhibition of human recombinant CYP3A4 expressed in insect cell microsomes preincubated for 10 mins at 0.1 uM by fluorescence assay; conditions: recombinant enzyme
T2 sequence (P08684 whole entry): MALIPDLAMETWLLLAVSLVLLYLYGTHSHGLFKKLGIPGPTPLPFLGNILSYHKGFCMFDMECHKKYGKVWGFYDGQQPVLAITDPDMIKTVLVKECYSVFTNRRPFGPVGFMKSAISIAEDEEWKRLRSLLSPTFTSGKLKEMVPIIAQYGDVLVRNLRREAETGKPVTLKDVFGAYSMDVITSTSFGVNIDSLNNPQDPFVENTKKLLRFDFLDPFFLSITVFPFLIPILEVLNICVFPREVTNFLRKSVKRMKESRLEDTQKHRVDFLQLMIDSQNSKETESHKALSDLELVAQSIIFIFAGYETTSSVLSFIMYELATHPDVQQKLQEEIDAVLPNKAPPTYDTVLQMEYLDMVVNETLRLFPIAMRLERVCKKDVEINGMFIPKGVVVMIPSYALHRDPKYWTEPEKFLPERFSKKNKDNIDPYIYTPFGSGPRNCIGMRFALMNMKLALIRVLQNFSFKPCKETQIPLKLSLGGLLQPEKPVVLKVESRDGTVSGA

CYP3A4 [11] = target: T2, CYP3A4; experiment: Inhibition of human recombinant CYP3A4 expressed in insect cell microsomes preincubated for 10 mins at 1 uM by fluorescence assay; conditions: recombinant enzyme
CYP3A4 [12] = target: T2, CYP3A4; experiment: Inhibition of human recombinant CYP3A4 expressed in insect cell microsomes preincubated for 10 mins at 10 uM by fluorescence assay; conditions: recombinant enzyme

T1 sequence (P08183 whole entry): as the sequence (P08183 whole entry) above

Compound COc1cc2c(cc1OC)C(=O)C(CC1CCN(Cc3ccccc3)CC1)C2 (stereo not drawn) [DONEPEZIL] has an inhibition at 40 min, 1 µM (MDR1 (P-gp, ABCB1) [1]) of 17.8%, a pIC50 [2] of 4.46 and an inhibition at 40 min, 10 µM (MDR1 (P-gp, ABCB1) [3]) of 23.5%. It also gave a concentration (Plasma) of 60 nM, an inhibition at 40 min, 0.01 µM (MDR1 (P-gp, ABCB1) [4]) of less than 15% and an inhibition at 40 min, 0.1 µM (MDR1 (P-gp, ABCB1) [5]) of less than 15%. The bioavailability [6] was 92%, the bioavailability [7] was 50% and the inhibition at 40 min, 100 µM (MDR1 (P-gp, ABCB1) [8]) was 76%. The fraction unbound [9] was 0.04.

In the case of CC(=O)N1CCN(c2ccc(OCC3COC(Cn4ccnc4)(c4ccc(Cl)cc4Cl)O3)cc2)CC1 (stereo not drawn) [KETOCONAZOLE], the inhibition at 0.1 µM (CYP3A4 [10]) was 33.9%, the inhibition at 1 µM (CYP3A4 [11]) was 87.2% and the inhibition at 10 µM (CYP3A4 [12]) was 92.3%.

Reference: ChEMBL document CHEMBL3351915 (Bioorg Med Chem Lett, 2015)
